Assay results: patent US6555091B1, “Polypeptide capable of reacting with antibodies of patients suffering from multiple sclerosis and uses” (Bio Merieux, priority 1997, dated 2003)
No end group written: not given here.

Tested on: IgG of sera from MS patients and healthy individuals
Experiment: ELISA of biotinylated synthetic peptides, IgG response of individual human sera
Format: binding
Conditions: for MEAN / OD 1 / OD 2 / OD 3 / BASELINE (mark: above cut-off): 1/100
Protocol: Depending on the information obtained from the preceding examples, the hexapeptides SEQ ID NO: 3 and SEQ ID NO: 4 were synthesized and biotinylated according to the method described in Patent Application No. EP 93420183 with the following modifications: the peptide still bound to the resin is selectively deprotected at the N-terminal position. After overnight incubation with the biotin-NHS at 50% in DMF, the peptide is then cleaved from the resin and treated as described in the patent cited above.
The wells of a Maxisorb (trade name, Nunc) microtiter plate are saturated with 100 μl of a 50 mM NaHCO3 solution, pH 9.6, containing 10 μg/ml of streptavidin for 2 hours at 37° C. The plate is washed with TBS/0.05% Tween 20 buffer. The wells are then saturated with 250 μl of wash buffer supplemented with 10% goat serum for 1 hour at 37° C. and then washed as described above.
The sera to be analyzed are diluted 1/100 in saturation buffer, supplemented with 0.05% Tween 20 and incubated for 2 hours at 37° C. After washing, a solution of peroxidase-labeled anti-human immunoglobulin G goat antibody conjugate (marketed by Jackson Immuno Research Laboratories Inc.) is added at the dilution of 1/10,000 and the plates are incubated for 1 hour at 37° C. After washes, the ortho-phenylenediamine (OPD) substrate is added and the reaction is stopped after 10 minutes by adding 50 μl of H2SO4. The optical density is read at 492 nm.
In a test carried out with 1/100 dilutions of 11 English sera from MS patients at the remission stage and 4 negative English sera, the peptides SEQ ID NOs: 3 and 4 are recognized by 4 sera out of 11 which give a positive IgG signal compared with the negative serum which gave the highest signal.

[1] = IgG, serum 33/6 (MS+, remission)
[2] = IgG, serum 33/8 (MS+, remission)
[3] = IgG, serum 33/18 (MS+, remission)
[4] = IgG, serum No. 12 (MS−, healthy)
[5] = IgG, serum No. 13 (MS−, healthy)
[6] = IgG, serum No. 14 (MS−, healthy)
[7] = IgG, serum No. 15 (MS−, healthy)
[8] = IgG, serum QS 2 (MS+, remission)
[9] = IgG, serum QS 3 (MS+, remission)
[10] = IgG, serum QS 4 (MS+, remission)
[11] = IgG, serum QS 6 (MS+, remission)
[12] = IgG, serum QS 7 (MS+, remission)
[13] = IgG, serum QS 8 (MS+, remission)
[14] = IgG, serum QS 11 (MS+, remission)
[15] = IgG, serum QS 12 (MS+, remission)

Question: Which “MS sera giving a positive IgG signal compared with the negative serum which gave the highest signal” value (1/100 dilutions of 11 sera from MS patients at the remission stage, 4 negative sera) does the source give for STGRPL [SEQ ID NO: 4] here?
Answer: The value was 4 sera out of 11.

Question: And the “MS sera recognizing the peptide significantly, cut-off mean of negative sera plus 3 times the standard deviation” value (IgG, 1/100 dilutions of 11 MS remission sera, 4 negative sera)?
Answer: The value was 3 sera out of 11.

Question: And the BASELINE (IgG, cut-off, mean of negative sera plus 3 times the standard deviation)?
Answer: The BASELINE was 674 optical density (×1000).

Question: What about the MEAN [1] of the same substance?
Answer: The MEAN was 496 optical density (×1000).

Question: And the “OD 1” value [1]?
Answer: The value was 465 optical density (×1000).

Question: What about the “OD 2” value [1] of the same substance?
Answer: Its value is 496 optical density (×1000).

Question: And the “OD 3” value [1]?
Answer: The value was 525 optical density (×1000).

Question: And the “BASELINE (mark: above cut-off)” value [2]?
Answer: The value was “X (the mean of the values obtained with the negative sera is calculated and 3 times the standard deviation is added in order to determine a cut-off)”.

Question: What about the MEAN [2] of the same substance?
Answer: The MEAN was 807 optical density (×1000).

Question: What about the “OD 1” value [2] of the same substance?
Answer: The value was 849 optical density (×1000).

Question: And the “OD 2” value [2]?
Answer: Its value is 820 optical density (×1000).

Question: And the “OD 3” value [2]?
Answer: The value was 753 optical density (×1000).

Question: And the MEAN [3]?
Answer: Its MEAN is 267 optical density (×1000).

Question: And the “OD 1” value [3]?
Answer: The value was 258 optical density (×1000).

Question: And the “OD 2” value [3]?
Answer: Its value is 243 optical density (×1000).

Question: And the “OD 3” value [3]?
Answer: The value was 299 optical density (×1000).

Question: What about the MEAN [4] of the same substance?
Answer: The MEAN was 518 optical density (×1000).

Question: And the “OD 1” value [4]?
Answer: Its value is 567 optical density (×1000).

Question: And the “OD 2” value [4]?
Answer: Its value is 518 optical density (×1000).

Question: And the “OD 3” value [4]?
Answer: The value was 469 optical density (×1000).

Question: And the MEAN [5]?
Answer: Its MEAN is 271 optical density (×1000).

Question: And the “OD 1” value [5]?
Answer: The value was 286 optical density (×1000).

Question: And the “OD 2” value [5]?
Answer: The value was 278 optical density (×1000).

Question: What about the “OD 3” value [5] of the same substance?
Answer: Its value is 268 optical density (×1000).

Question: What about the MEAN [6] of the same substance?
Answer: Its MEAN is 359 optical density (×1000).

Question: What about the “OD 1” value [6] of the same substance?
Answer: The value was 322 optical density (×1000).

Question: What about the “OD 2” value [6] of the same substance?
Answer: Its value is 401 optical density (×1000).

Question: What about the “OD 3” value [6] of the same substance?
Answer: The value was 354 optical density (×1000).

Question: And the MEAN [7]?
Answer: The MEAN was 442 optical density (×1000).

Question: And the “OD 1” value [7]?
Answer: Its value is 423 optical density (×1000).

Question: What about the “OD 2” value [7] of the same substance?
Answer: Its value is 432 optical density (×1000).

Question: What about the “OD 3” value [7] of the same substance?
Answer: The value was 470 optical density (×1000).

Question: And the MEAN [8]?
Answer: Its MEAN is 277 optical density (×1000).

Question: And the “OD 1” value [8]?
Answer: Its value is 267 optical density (×1000).

Question: And the “OD 2” value [8]?
Answer: The value was 296 optical density (×1000).

Question: And the “OD 3” value [8]?
Answer: Its value is 267 optical density (×1000).

Question: And the MEAN [9]?
Answer: Its MEAN is 624 optical density (×1000).

Question: And the “OD 1” value [9]?
Answer: Its value is 668 optical density (×1000).

Question: And the “OD 2” value [9]?
Answer: Its value is 618 optical density (×1000).

Question: What about the “OD 3” value [9] of the same substance?
Answer: Its value is 585 optical density (×1000).

Question: And the “BASELINE (mark: above cut-off)” value [10]?
Answer: The value was “X (the mean of the values obtained with the negative sera is calculated and 3 times the standard deviation is added in order to determine a cut-off)”.

Question: What about the MEAN [10] of the same substance?
Answer: The MEAN was 1026 optical density (×1000).

Question: What about the “OD 1” value [10] of the same substance?
Answer: The value was 1096 optical density (×1000).

Question: And the “OD 2” value [10]?
Answer: The value was 1120 optical density (×1000).

Question: And the “OD 3” value [10]?
Answer: Its value is 862 optical density (×1000).

Question: What about the MEAN [11] of the same substance?
Answer: The MEAN was 206 optical density (×1000).

Question: And the “OD 1” value [11]?
Answer: The value was 204 optical density (×1000).

Question: And the “OD 2” value [11]?
Answer: Its value is 212 optical density (×1000).

Question: What about the “OD 3” value [11] of the same substance?
Answer: Its value is 201 optical density (×1000).

Question: And the “BASELINE (mark: above cut-off)” value [12]?
Answer: Its value is “X (the mean of the values obtained with the negative sera is calculated and 3 times the standard deviation is added in order to determine a cut-off)”.

Question: And the MEAN [12]?
Answer: The MEAN was 1380 optical density (×1000).

Question: And the “OD 1” value [12]?
Answer: Its value is 1379 optical density (×1000).

Question: What about the “OD 2” value [12] of the same substance?
Answer: The value was 1437 optical density (×1000).

Question: What about the “OD 3” value [12] of the same substance?
Answer: The value was 1323 optical density (×1000).

Question: What about the MEAN [13] of the same substance?
Answer: The MEAN was 552 optical density (×1000).

Question: And the “OD 1” value [13]?
Answer: Its value is 523 optical density (×1000).

Question: What about the “OD 2” value [13] of the same substance?
Answer: Its value is 504 optical density (×1000).

Question: What about the “OD 3” value [13] of the same substance?
Answer: Its value is 630 optical density (×1000).

Question: And the MEAN [14]?
Answer: Its MEAN is 269 optical density (×1000).

Question: What about the “OD 1” value [14] of the same substance?
Answer: The value was 272 optical density (×1000).

Question: And the “OD 2” value [14]?
Answer: Its value is 273 optical density (×1000).

Question: And the “OD 3” value [14]?
Answer: Its value is 261 optical density (×1000).

Question: What about the MEAN [15] of the same substance?
Answer: The MEAN was 237 optical density (×1000).

Question: And the “OD 1” value [15]?
Answer: The value was 271 optical density (×1000).

Question: What about the “OD 2” value [15] of the same substance?
Answer: The value was 227 optical density (×1000).

Question: What about the “OD 3” value [15] of the same substance?
Answer: Its value is 212 optical density (×1000).
